# Read-outs that look alike come from different tables or passages of the source.
# Columns and labels:
# proteasome = target: T1, proteasome (Homo sapiens, UniProt P28074); test: Proteasome inhibitory activity (Suc-Leu-Leu-Val-Tyr-AMC cleavage, crude enzyme solution from HeLa S3 cell extract); format: biochemical
# T1 construct: The obtained high molecular fraction (molecular weight >500K) was used as an enzyme solution for the detection of proteasome activity; endogenous in cells; host or cells: HeLa S3 cells: homogenate, 100,000G supernatant, >500K fraction from Centricon-500
# Experimental: 1 x 10^9 of HeLa S3 cells were dispersed in 5 ml of the buffer A [20 mmol/L of Tris (pH 7.5), 2 mmol/L of ATP, 5 mmol/L of MgCl2, 1 mmol/L of dithiothreitol (DTT)], and then homogenized at 4°C. The supernatant centrifuged at 100,000G was concentrated by a Centricon-500 (supplied by Amicon) and diluted with 2.5 ml of the buffer B [25 mmol/L of Tris/HCl (pH 7.5), 2 mmol/L of ATP, 1 mmol/L of DTT, 20% of glycerol]. The obtained high molecular fraction (molecular weight >500K) was used as an enzyme solution for the detection of proteasome activity. Suc-Leu-Leu-Val-Tyr-AMC [Suc: Succinyl; AMC: Aminomethylcoumarin](supplied by Peptide Institute, Inc.) was used as a substrate for measuring inhibitory activity for proteasome (stored as a 2 mmol/L DMSO solution). The reaction was carried out by the following method using 96-well microtiter plates. To 96 µl of a reaction buffer [20 mmol/L of Tris/HCl (pH 8), 0.5 mmol/L of EDTA, 0.04% of sodium dodecylsulfate (SDS)] were added 1 µl of a drug solution (DMSO) and 2 µl of an enzyme solution followed by adding 1 µl of a substrate solution thereto, and then the mixture was incubated at 37°C for one hour. […]
# [1] = tested on: Human colon cancer, WiDr cells; test: Antiproliferative activity in WiDr cells (MTT, 72 hours); format: cell-based
# Experimental: Human colon cancer, WiDr cells suspended in MEM media containing 10% of fetal calf serum were seeded in 96-well microtiter plates at 2 x 10^3cells/well, and precultured in an incubator with 5% of CO2 at 37°C for 24 hours. Then, each compound diluted appropriately with the media was added into the well at 50 µl/well. At this time, a final concentration of each compound is up to 100 µmol/l or 1 µmol/l. The cells were cultured in the incubator with 5% of CO2 at 37°C for additional 72 hours. At 5 hours before the culturing was terminated, MTT [3-(4,5-dimethylthiazol-2-yl)-2,5-[…] bromide] dissolved in the medium at a final concentration of 1 mg/mL was added into the well at 50 µl/well. After the culturing, dimethyl sulfoxide was added to the well at 150 µl/well, and the plate was vigorously stirred using a plate mixer to dissolve crystals of MTT-formazan completely. […]
# [2] = crude proteasome fraction (>500K) from HeLa S3 cells, substrate Suc-Leu-Leu-Val-Tyr-AMC, 37°C for one hour, read-out: IC50
# [3] = crude proteasome fraction (>500K) from HeLa S3 cells, substrate Suc-Leu-Leu-Val-Tyr-AMC, 37°C for one hour
Compound,IC50 (proteasome; [2]) [nM],IC50 [1] [nM],IC50 (proteasome) [nM],IC50 (proteasome; [3]) [nM]
CCC(C)C1C(=O)OC1C(=O)NCCCC(NC(=O)C(C)N)C(=O)OCc1ccccc1 (centres unmarked) [Compound 46],6,150,,
CC(C)CC1C(=O)OC1C(=O)NCCCC(NC(=O)C(C)N)C(=O)OCc1ccccc1 (centres unmarked) [Compound 60],40,,,
CCC(C)C1C(=O)OC1C(=O)NC1CC1CC(NC(=O)C(C)NC(=O)OC(C)(C)C)C(=O)OCc1c2ccccc2cc2ccccc12 (centres unmarked) [Compound 7],17,700,,
CC(C)CC1C(=O)OC1C(=O)NCCCCC(NC(=O)OC(C)(C)C)C(=O)OCc1ccccc1 (centres unmarked) [Compound 48],50,,,
CC(C)CC1C(=O)OC1C(=O)NCCCCC(COC(=O)c1ccccc1)NC(=O)C(C)NC(=O)OC(C)(C)C (centres unmarked) [Compound 56],22,1900,,
CCCCNC(=O)C(CC1CC1NC(=O)C1OC(=O)C1C(C)CC)NC(=O)C(C)N (centres unmarked) [Compound 25],,59,24,
CC(C)=C[C@@H]1C(=O)O[C@H]1C(=O)NCCCC[C@H](NC(=O)[C@H](C)NC(=O)OC(C)(C)C)C(=O)NCc1cccc2ccccc12 [Compound 74],3,,,
CC(C)C[C@@H]1C(=O)O[C@H]1C(=O)Nc1cc(C[C@H](NC(=O)OC(C)(C)C)C(=O)OCc2ccccc2)ccc1OCc1ccccc1 [Compound 82],100,,,
CCC(C)C1C(=O)OC1C(=O)NC1CC1CC(NC(=O)C(C)N)C(=O)NCc1cccc2ccccc12 (centres unmarked) [Compound 22],12,< 41,,
CC(C)CC1C(=O)OC1C(=O)NCCCCC(NC(=O)C(C)NC(=O)OC(C)(C)C)C(=O)NCc1cccc2ccccc12 (centres unmarked) [Compound 75],1,,,
COc1ccc(CC(NC(=O)OC(C)(C)C)C(=O)OCc2ccccc2)cc1NC(=O)C1OC(=O)C1CC(C)C (centres unmarked) [Compound 81],,,,500
CCC(C)C1C(=O)OC1C(=O)NC1CC1CC(NC(=O)C(C)N1C(=O)c2ccccc2C1=O)C(=O)OCc1ccccc1 (centres unmarked) [Compound 42],,,22,
CCC(C)C1C(=O)OC1C(=O)NC1CC1CC(NC(=O)C(C)NC(=O)CO[Si](C)(C)C(C)(C)C)C(=O)OCc1ccccc1 (centres unmarked) [Compound 37],6,5700,,
CCC(C)C1C(=O)OC1C(=O)NC1CC1CC(NC(=O)C(C)NS(=O)(=O)c1ccccc1)C(=O)OCc1ccccc1 (centres unmarked) [Compound 39],8,486,,
CCC(C)C1C(=O)OC1C(=O)NC1CC1CC(NC(=O)C(C)NC(=O)OCc1ccccc1)C(=O)OCc1ccccc1 (centres unmarked) [Compound 28],5,93,,
CCC(C)C1C(=O)OC1C(=O)NCCCC(NC(=O)C(C)NC(=O)OC(C)(C)C)C(=O)OCc1ccccc1 (centres unmarked) [Compound 45],,300,6,
CCC(C)C1C(=O)OC1C(=O)NC1CC1CC(NC(=O)C(C)NC(=O)NCc1ccccc1)C(=O)OCc1ccccc1 (centres unmarked) [Compound 30],4,64,,

Compound,IC50 (proteasome; [2]) [nM],IC50 [1] [nM],IC50 (proteasome) [nM],IC50 (proteasome; [3]) [nM]
CCC(C)C1C(=O)OC1C(=O)NC1CC1CC(NC(=O)C(C)N(Cc1ccccc1)Cc1ccccc1)C(=O)OCc1ccccc1 (centres unmarked) [Compound 43],14,3900,,
CC(C)CC1C(=O)OC1C(=O)NCC(NC(=O)OC(C)(C)C)C(=O)OCc1ccccc1 (centres unmarked) [Compound 47],,,,150
CCC(C)C1C(=O)OC1C(=O)NC1CC1CC(NC(=O)C(C)NC(=O)OC(C)(C)C)C(=O)N[C@@H](C)C(=O)OCc1ccccc1 (some centres unmarked) [Compound 27],,,3,
CCC(C)C1C(=O)OC1C(=O)NC1CC1CC(NC(=O)C(C)NC(=O)OC(C)(C)C)C(=O)OC (centres unmarked) [Compound 1],,790,50,
CCC(C)C1C(=O)OC1C(=O)NC1CC1CC1NC(=O)C(C)NC1=O (centres unmarked) [Compound 44],,,,47
CC(C)CC1C(=O)OC1C(=O)NCCCCCNC(=O)C(C)NC(=O)OC(C)(C)C (centres unmarked) [Compound 53],250,,,
CC(C)C[C@@H]1C(=O)O[C@H]1C(=O)NCCC[C@H](NC(=O)[C@H](C)NC(=O)OC(C)(C)C)C(=O)OCc1ccccc1 [Compound 59],33,,,
CCC(C)C1C(=O)OC1C(=O)NC1CC1CC(NC(=O)C(C)NC(=O)OC(C)(C)C)C(=O)NNc1ccccc1 (centres unmarked) [Compound 23],,410,17,
CCC(C)C1C(=O)OC1C(=O)NC1CC1CC(NC(=O)C(C)NC(=O)OC(C)(C)C)C(=O)NCc1cccc2ccccc12 (centres unmarked) [Compound 21],,520,4,
CC(C)C[C@@H]1C(=O)O[C@H]1C(=O)NC1CC1CC(NC(=O)[C@H](C)NC(=O)OC(C)(C)C)C(=O)NCc1cccc2ccccc12 (some centres unmarked) [Compound 91],24,22000,,
CC(C)CC1C(=O)OC1C(=O)NCCCCCC(=O)OCc1ccccc1 (centres unmarked) [Compound 55],77,,,
CC(C)CC1C(=O)OC1C(=O)NCCCC(NC(=O)OC(C)(C)C)C(=O)OCc1ccccc1 (centres unmarked) [Compound 58],26,,,
CC(C)C[C@@H]1C(=O)O[C@H]1C(=O)NC1CC1CC(NC(=O)OC(C)(C)C)C(=O)NCc1cccc2ccccc12 (some centres unmarked) [Compound 90],22,40000,,
CC(C)CC1C(=O)OC1C(=O)NCCCCCNC(=O)C1C(OCc2ccccc2)CCN1C(=O)OC(C)(C)C (centres unmarked) [Compound 54],47,,,
CCC(C)C1C(=O)OC1C(=O)NC1CC1CC(NC(=O)C(C)NC(=O)OCc1ccc(Br)cc1)C(=O)OCc1ccccc1 (centres unmarked) [Compound 29],5,,,
CC(C)CC1C(=O)OC1C(=O)NCCCCC(NC(=O)C(C)NC(=O)OC(C)(C)C)C(=O)OCc1ccccc1 (centres unmarked) [Compound 49],30,,,

# Now from value to molecule, other results behind:
IC50 (proteasome; [2]) [nM],IC50 [1] [nM],Compound,IC50 (proteasome) [nM],IC50 (proteasome; [3]) [nM]
15,76,CCC(C)C1C(=O)OC1C(=O)NC1CC1CC(NC(=O)C(C)NC(=O)c1ccccc1)C(=O)OCc1ccccc1 (centres unmarked) [Compound 33],,
14,,CCC(C)C1C(=O)OC1C(=O)NC1CC1CC(NC(=O)C(C)NC(=O)OC(C)(C)C)C(=O)OCc1cccc(F)c1 (centres unmarked) [Compound 8],,
51,< 41,CCCCOC(=O)C(CC1CC1NC(=O)C1OC(=O)C1C(C)CC)NC(=O)C(C)N (centres unmarked) [Compound 12],,
21,62,CCC(C)C1C(=O)OC1C(=O)NC1CC1CC(NC(=O)C(C)NC(=O)c1cnccn1)C(=O)OCc1ccccc1 (centres unmarked) [Compound 36],,
46,68,C=CCOC(=O)C(CC1CC1NC(=O)C1OC(=O)C1C(C)CC)NC(=O)C(C)N (centres unmarked) [Compound 10],,
15,37,CCC(C)C1C(=O)OC1C(=O)NC1CC1CC(NC(=O)C(C)NC(=O)OC(C)(C)C)C(=O)OCc1ccccc1 (centres unmarked) [Compound 3],,
13,160,CCC(C)C1C(=O)OC1C(=O)NC1CC1CC(NC(=O)C(C)NC(=O)OC(C)(C)C)C(=O)N1CCOCC1 (centres unmarked) [Compound 26],,
400,> 30000,"CCC(C)C1C(=O)OC1C(=O)NC1CC1CC(NC(=O)C(C)N)C(=O)O (centres unmarked) [UCK14A1, reference compound]",,
11,57,CCC(C)C1C(=O)OC1C(=O)NC1CC1CC(NC(=O)C(C)N)C(=O)NCc1ccccc1 (centres unmarked) [Compound 20],,
38,40,CCC(C)C1C(=O)OC1C(=O)NC1CC1CC(NC(=O)C(C)N)C(=O)OCc1ccc2ccccc2c1 (centres unmarked) [Compound 6],,
26,10,C=CCOC(=O)C(CC1CC1NC(=O)C1OC(=O)C1C(C)CC)NC(=O)C(C)NC(=O)OC(C)(C)C (centres unmarked) [Compound 9],,
27,93,CCC(C)C1C(=O)OC1C(=O)NC1CC1CC(NC(=O)C(C)NC(C)=O)C(=O)OCc1ccccc1 (centres unmarked) [Compound 35],,
19,10,CCCCOC(=O)C(CC1CC1NC(=O)C1OC(=O)C1C(C)CC)NC(=O)C(C)NC(=O)OC(C)(C)C (centres unmarked) [Compound 11],,
24,450,CCC(C)C1C(=O)OC1C(=O)NC1CC1CC(NC(=O)C(C)NS(C)(=O)=O)C(=O)OCc1ccccc1 (centres unmarked) [Compound 40],,
70,,CCC(C)C1C(=O)OC1C(=O)NC1CC1CC(NC(=O)C(C)N)C(=O)OC (centres unmarked) [Compound 2],,
30,490,CCC(C)C1C(=O)OC1C(=O)NC1CC1CC(NC(=O)C(C)NC(=O)OC(C)(C)C)C(=O)OC(C)(C)C (centres unmarked) [Compound 13],,
19,180,CCC(C)C1C(=O)OC1C(=O)NC1CC1CC(NC(=O)C(C)NC(=O)OC(C)(C)C)C(=O)OCOC (centres unmarked) [Compound 17],,
38,1200,CCC(C)C1C(=O)OC1C(=O)NC1CC1CC(NC(=O)C(C)NC=O)C(=O)OCc1ccccc1 (centres unmarked) [Compound 34],,

# Reference: EP1166781A1, “PROTEASOME INHIBITORS” (KYOWA HAKKO KOGYO CO., LTD., priority 1999, dated 2000)
